# Patent publication US20160108004A1, “TREATMENT OR PREVENTION OF NEURODEGENERATIVE DISORDERS USING MENTHOL, LINALOOL AND/OR ICILIN” (NESTEC S.A., priority 2013, published 2016)
# Experiments:
# [1] = test system: Lateral Amygdala glutamatergic neuron; assay: whole cell, current clamp recordings in a Lateral Amygdala glutamatergic neuron (mouse brain slice); format: cell-based; details: for inactivation of the sodium fast channels relative to control: square pulse of 2.5 s at high depolarization of membrane potential (approximately −30 mV), FIG. 2
# Source text: (§1) A mouse brain slice was used to study the effects of Menthol, Linalool and Icilin. The amygdaloid complex is located within the medial temporal lobe in neocortex and amygdala. The lateral and basolateral nuclei of the amygdaloid complex receive sensory information from cortical and thalamic structures, process the information, and then transmit the information, either directly or through the basal nucleus, to the central nucleus. For experimental analysis of neural activity, synaptic responses from the basolateral complex can be evoked electrically using electrodes, and the action potentials can be measured.
# A square pulse of 2.5 s was applied at high depolarization of membrane potential (approximately −30 mV).
# [2] = test system: Lateral Amygdala glutamatergic neuron; assay: whole cell, current clamp recordings with increasing concentration of gabazine (spontaneous action potential bursts); format: cell-based, mouse
# Source text: as §1
SMILES,amount of current required to trigger an action potential [1],threshold to trigger an action potential [1],action potentials at higher stimulation levels [1],inactivation of the sodium fast channels relative to control [1],"spontaneous bursts in the presence of gabazine ([2]; Menthol 250 μM applied extracellularly 10 minutes previous to and during exposure to increasing concentrations of gabazine, FIG. 5 compared to FIG. 3)","spontaneous action potential bursts ([2]; increasing concentrations of gabazine applied extracellularly, recordings of 5 min each, washout 10 min, FIG. 3)"
O=C1NC(c2cccc([N+](=O)[O-])c2)=CCN1c1ccccc1O [Icilin],increase the amount of current required to trigger an action potential,increase the threshold to trigger an action potential,abort action potentials at higher stimulation levels,inactivation of the sodium fast channels happens sooner relative to control,–,–
C=CC(C)(O)CCC=C(C)C (centres unmarked) [Linalool],increase the amount of current required to trigger an action potential,increase the threshold to trigger an action potential,abort action potentials at higher stimulation levels,inactivation of the sodium fast channels happens sooner relative to control,–,–
CC1CCC(C(C)C)C(O)C1 (centres unmarked) [Menthol],increase the amount of current required to trigger an action potential,increase the threshold to trigger an action potential,abort action potentials at higher stimulation levels,inactivation of the sodium fast channels happens sooner relative to control,complete absence or a strongly decreased presence of spontaneous bursts,–
"COc1ccc(-c2ccc(=N)n(CCCC(=O)O)n2)cc1 [gabazine, reference compound]",–,–,–,–,–,neurons spontaneously present action potential bursts
